Test results: ChEMBL document CHEMBL1201862, “PubChem BioAssay data set” (2004)
Calls of active or inactive are those of the source.

Assays:
[1] = target: Protein-arginine deiminase type-4 (Homo sapiens, UniProt Q9UM07); experiment: IC50 against protein arginine deiminase 4 – biochemical, fluorescence readout, dose response (AID 492970)
Bcl-2-related protein A1 = target: T1, Bcl-2-related protein A1 (Mus musculus, UniProt Q07440); format: functional;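 note: confirmatory dose–response counterscreen on Bfl-1, used to check hits from a UBC13 polyubiquitin inhibitor campaign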
T1 sequence (Q07440 whole entry): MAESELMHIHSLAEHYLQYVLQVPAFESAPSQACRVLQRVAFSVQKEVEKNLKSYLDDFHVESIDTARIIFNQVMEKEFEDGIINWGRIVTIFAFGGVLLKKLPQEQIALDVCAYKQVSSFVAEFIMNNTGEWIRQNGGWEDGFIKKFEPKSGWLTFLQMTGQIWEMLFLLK

[2] = target: T2, Ubiquitin-conjugating enzyme E2 N (Homo sapiens, UniProt P61088); format: functional
T2 sequence (P61088 whole entry): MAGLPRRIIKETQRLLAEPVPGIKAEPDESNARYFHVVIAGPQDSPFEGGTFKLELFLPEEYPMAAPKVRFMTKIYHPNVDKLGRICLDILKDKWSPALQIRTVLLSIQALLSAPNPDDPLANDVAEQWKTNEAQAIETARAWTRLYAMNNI

[3] = target: T2, Ubiquitin-conjugating enzyme E2 N; format: functional; remark: listed apart in the source
Beta-lactamase [4] = target: Beta-lactamase (Pseudomonas aeruginosa, UniProt Q79MP6);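 note: biochemical dose-response test of metallo-beta-lactamase enzyme inhibition, read out by epi-absorbance; purified recombinant IMP-1 metallo-beta-lactamase with nitrocefin as substrate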
Beta-lactamase [5] = target: Beta-lactamase (Salmonella choleraesuis (strain SC-B67), UniProt Q5J463)
ORF 73 = ORF 73 (Human herpesvirus 8, UniProt O40947); experiment: KSHV LANA DNA-binding disruption – biochemical, fluorescence polarization, cherry-picked samples, dose response (AID 504725); set-up: species or system Human gammaherpesvirus 8;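 note: fluorescence polarization of a labeled DNA duplex reporting LANA DNA binding; potency is for inhibitors that block LANA binding to the DNA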
[6] = compound autofluorescence in calcium buffer – biochemical, fluorescence, no RTF in test wells, artefact control for cardiac thin filament activator project, dose response (AID 504697)
Troponin, cardiac muscle = Troponin, cardiac muscle (Homo sapiens, UniProt P19429+P45379+P63316); experiment: Fluorescence-based biochemical high throughput dose response assay for activators of the calcium sensitivity of cardiac Regulated Thin Filaments (RTF). [Related pubchem assays (depositor defined):AID493008, AID493018, AID504382, AID504383]; format: protein-complex assay
Insulin-degrading enzyme [7] = target: T3, Insulin-degrading enzyme (Homo sapiens, UniProt P14735); experiment: recombinant IDE activation, cell-free – biochemical, fluorescence polarization, counter-screen for IDE activator project, dose response (AID 588681)
T3 sequence (P14735 whole entry): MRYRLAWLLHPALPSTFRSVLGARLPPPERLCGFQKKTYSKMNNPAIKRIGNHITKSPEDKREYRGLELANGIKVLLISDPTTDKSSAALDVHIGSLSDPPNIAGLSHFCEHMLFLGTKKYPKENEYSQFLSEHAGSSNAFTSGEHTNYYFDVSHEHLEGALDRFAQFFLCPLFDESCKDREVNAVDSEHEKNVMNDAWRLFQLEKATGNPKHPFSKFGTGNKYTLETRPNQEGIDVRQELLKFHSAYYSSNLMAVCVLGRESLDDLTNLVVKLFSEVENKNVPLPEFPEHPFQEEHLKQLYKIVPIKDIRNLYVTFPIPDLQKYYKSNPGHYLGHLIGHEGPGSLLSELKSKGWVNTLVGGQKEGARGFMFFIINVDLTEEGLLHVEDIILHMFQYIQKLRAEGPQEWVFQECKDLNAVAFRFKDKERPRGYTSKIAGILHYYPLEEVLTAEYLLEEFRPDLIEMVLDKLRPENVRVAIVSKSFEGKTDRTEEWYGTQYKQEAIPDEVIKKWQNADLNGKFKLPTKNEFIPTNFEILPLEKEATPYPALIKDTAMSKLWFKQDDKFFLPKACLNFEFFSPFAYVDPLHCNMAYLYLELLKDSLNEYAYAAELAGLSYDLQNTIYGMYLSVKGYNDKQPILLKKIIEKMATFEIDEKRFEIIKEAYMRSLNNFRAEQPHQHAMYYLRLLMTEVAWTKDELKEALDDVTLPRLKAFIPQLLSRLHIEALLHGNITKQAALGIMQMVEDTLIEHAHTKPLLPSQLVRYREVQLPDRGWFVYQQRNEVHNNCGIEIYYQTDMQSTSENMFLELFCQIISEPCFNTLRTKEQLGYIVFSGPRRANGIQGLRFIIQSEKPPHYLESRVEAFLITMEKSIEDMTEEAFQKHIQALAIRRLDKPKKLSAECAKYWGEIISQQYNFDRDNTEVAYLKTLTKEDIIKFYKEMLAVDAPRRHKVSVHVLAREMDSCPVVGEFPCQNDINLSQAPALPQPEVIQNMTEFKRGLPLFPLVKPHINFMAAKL

Insulin-degrading enzyme [8] = target: T3, Insulin-degrading enzyme; experiment: cellular IDE activation of Abeta substrate cleavage – fluorescence polarization, HEK cells, dose response (AID 588439); format: functional, cell-based
HEK293 [9] = experiment: membrane integrity loss in HEK cells – cell-based, fluorescence, cytotoxicity control for IDE activator project, dose response (AID 588440); format: functional; conditions: Homo sapiens;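 note: cytotoxicity by LDH release measuring loss of membrane integrity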
HEK293 [10] = experiment: optical interference in Abeta FP readout, dose response, artefact control for IDE activator project, biochemical, fluorescence polarization (AID 588442); format: functional, cell-based; conditions: Homo sapiens

Chain of Beta-lactamase (Pseudomonas aeruginosa, UniProt Q79MP6) (Q79MP6 whole entry): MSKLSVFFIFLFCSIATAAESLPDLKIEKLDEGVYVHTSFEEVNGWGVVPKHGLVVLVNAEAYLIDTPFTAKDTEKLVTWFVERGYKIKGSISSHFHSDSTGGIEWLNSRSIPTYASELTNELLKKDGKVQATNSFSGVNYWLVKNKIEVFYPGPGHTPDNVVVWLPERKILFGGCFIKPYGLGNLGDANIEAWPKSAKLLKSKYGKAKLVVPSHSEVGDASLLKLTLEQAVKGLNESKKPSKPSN
Chain of Beta-lactamase (Salmonella choleraesuis (strain SC-B67), UniProt Q5J463) (Q5J463 whole entry): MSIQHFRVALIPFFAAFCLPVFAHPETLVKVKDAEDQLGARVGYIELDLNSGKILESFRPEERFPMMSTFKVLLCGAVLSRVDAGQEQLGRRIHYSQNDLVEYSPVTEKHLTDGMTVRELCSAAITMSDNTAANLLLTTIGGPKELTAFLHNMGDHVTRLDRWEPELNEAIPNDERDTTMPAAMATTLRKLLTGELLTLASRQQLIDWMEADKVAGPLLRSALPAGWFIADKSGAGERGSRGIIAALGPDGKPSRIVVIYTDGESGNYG
Chain of ORF 73 (O40947 whole entry): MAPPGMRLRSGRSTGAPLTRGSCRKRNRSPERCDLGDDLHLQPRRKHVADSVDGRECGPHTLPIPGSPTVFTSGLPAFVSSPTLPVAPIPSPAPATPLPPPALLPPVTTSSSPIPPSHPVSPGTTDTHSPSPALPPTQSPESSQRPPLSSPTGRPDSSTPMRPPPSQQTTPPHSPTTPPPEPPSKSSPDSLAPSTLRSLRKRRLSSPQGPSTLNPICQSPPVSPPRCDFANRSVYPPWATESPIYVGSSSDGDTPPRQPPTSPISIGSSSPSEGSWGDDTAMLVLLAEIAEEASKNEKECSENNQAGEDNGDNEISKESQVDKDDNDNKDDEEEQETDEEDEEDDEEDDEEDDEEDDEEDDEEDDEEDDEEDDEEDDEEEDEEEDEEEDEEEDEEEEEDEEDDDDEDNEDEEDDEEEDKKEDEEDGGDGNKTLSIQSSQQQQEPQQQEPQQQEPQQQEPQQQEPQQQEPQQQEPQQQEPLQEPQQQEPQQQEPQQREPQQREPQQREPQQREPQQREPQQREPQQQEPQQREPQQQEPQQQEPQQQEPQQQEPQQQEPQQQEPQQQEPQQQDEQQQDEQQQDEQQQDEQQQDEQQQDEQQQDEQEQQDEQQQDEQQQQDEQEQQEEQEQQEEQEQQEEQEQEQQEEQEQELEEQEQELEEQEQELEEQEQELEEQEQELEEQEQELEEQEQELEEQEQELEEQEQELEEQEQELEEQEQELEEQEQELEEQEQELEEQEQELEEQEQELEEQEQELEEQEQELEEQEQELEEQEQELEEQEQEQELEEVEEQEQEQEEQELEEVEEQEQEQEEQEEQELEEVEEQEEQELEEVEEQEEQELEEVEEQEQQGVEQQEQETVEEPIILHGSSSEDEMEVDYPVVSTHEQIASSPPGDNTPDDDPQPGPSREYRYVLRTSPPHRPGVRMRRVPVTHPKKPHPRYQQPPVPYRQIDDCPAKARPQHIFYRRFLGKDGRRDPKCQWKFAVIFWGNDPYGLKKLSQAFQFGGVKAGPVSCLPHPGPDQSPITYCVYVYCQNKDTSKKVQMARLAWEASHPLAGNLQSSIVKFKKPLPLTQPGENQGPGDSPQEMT
Chain of Protein-arginine deiminase type-4 (Q9UM07 whole entry): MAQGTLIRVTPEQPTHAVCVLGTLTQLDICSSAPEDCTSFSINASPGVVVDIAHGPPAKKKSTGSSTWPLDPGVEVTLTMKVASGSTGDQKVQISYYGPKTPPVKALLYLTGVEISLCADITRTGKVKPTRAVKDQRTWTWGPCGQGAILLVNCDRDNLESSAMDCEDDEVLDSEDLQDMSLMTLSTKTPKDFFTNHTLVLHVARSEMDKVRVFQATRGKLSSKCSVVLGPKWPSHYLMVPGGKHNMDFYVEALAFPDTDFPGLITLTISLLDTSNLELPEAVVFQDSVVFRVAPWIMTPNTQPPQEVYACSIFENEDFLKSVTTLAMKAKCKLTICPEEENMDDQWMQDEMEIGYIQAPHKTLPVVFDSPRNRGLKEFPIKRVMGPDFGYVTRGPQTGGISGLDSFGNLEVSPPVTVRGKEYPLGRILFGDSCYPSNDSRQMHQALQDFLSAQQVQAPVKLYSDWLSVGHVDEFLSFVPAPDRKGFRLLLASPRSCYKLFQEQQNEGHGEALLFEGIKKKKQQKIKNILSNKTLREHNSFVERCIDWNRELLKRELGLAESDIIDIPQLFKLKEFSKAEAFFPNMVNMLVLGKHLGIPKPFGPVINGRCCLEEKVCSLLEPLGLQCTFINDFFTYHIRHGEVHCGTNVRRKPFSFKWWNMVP

NNC(=O)/C(=C\c1ccco1)NC(=O)c1ccccc1
IC50 [1]: > 100 µM (inactive)

Cc1ccc(NC(=O)C2CCN(c3ncnc4c3nc3n4CCCCC3)CC2)cc1Cl
IC50 (Bcl-2-related protein A1): > 20 µM (inactive) | IC50 [2]: 16 µM (active) | IC50 [3]: 6.92 µM (active)

CN(C)/C=C1\C=C2C(=O)c3ccccc3N2C1=O
IC50 (Beta-lactamase [4]): 1.02 µM (active) | IC50 (Beta-lactamase [5]): 0.372 µM (active) | AC50 (ORF 73): 0.051 µM (active) | EC50 [6]: > 0.0327 µM (active) | EC50 (Troponin, cardiac muscle): > 0.0109 µM (active) | EC50 (Insulin-degrading enzyme [7]): > 54.7 µM (inactive) | EC50 (Insulin-degrading enzyme [8]): > 54.7 µM (inactive) | IC50 (HEK293 [9]): > 89.2 µM (inactive) | EC50 (HEK293 [10]): > 54.7 µM (inactive)
